Laboratory results: article PMC3438171, “Characterization of Isoenzyme-Selective Inhibitors of Human Sphingosine Kinases” (PLoS ONE, 2012)

Experiments:
[1] = tested on: STAT3, AKT, ERK, p21, p53, FAK, Beclin1, LC3 in A498 cells; assay: Western blot of signaling proteins in A498 cells; assay type: cell-based; settings: inhibitor at its IC50, 48 hours
Method: Following treatment with the SK inhibitors, cells were washed, harvested and lysed, and supernatants were prepared and protein concentrations were determined as previously described. Immunoblotting was carried out with the following primary antibodies (Cell Signaling): AKT, pAKT, ERK1/2, pERK1/2, STAT3, pSTAT3, p21, p53, FAK, pFAK(Y397), Beclin1, LC3, β-actin; and corresponding HRP-conjugated anti-rabbit or anti-mouse secondary antibodies, and immunocomplexes were visualized by the chemiluminescence. Protein expression was quantified by densitometric scanning of the BIOMAX XAR films after normalization to β-actin using the program NIH ImageJ.
Figure 6 Effects of SK inhibitors on signaling proteins. […] Figures are representative blots of at least three independent experiments. B ) Immunoblotting was conducted with the indicated antibodies, and densitometric quantification was done using Image J. Relative expression is represented as the ratio to control after normalization to β-actin.

SK2 mRNA = SK2 mRNA expression by quantitative PCR in A498 cells; assay type: cell-based; settings: inhibitor at its IC50, 48 hr
Method: (§1) To assess proliferation, cells were treated with the SK inhibitors for the indicated times, and cell numbers were quantified using the sulforhodamine assay. Expression levels of SK1 and SK2 were measured by quantitative PCR using GAPDH for normalization, as previously described. […] The cell pellets were subjected to sphingolipid profiling by HPLC-MS by the Lipidomics Core Facility at MUSC as described elsewhere. […] For migration assays, 50,000 cells were placed in each cell culture insert (24-well format, 8 µm pore size, BD Biosciences) for 1 hr at room temperature. For invasion assays, matrigel pre-coated inserts were used as previously described. In both cases, inserts were placed into 24-well plates with 0.3 ml of 10%-serum-containing medium having the same concentration of the inhibitor as the insert. Cells were cultured for 4 hr for migration or 24 hr for invasion assays, and the number of cells that migrated to the underside of the inserts was determined by crystal violet staining as previously described.
(§2) Figure 5 Biochemical and phenotypic effects of SK inhibitors. A ) Cytotoxicity - After treatment with varying concentrations of the SK inhibitors for the indicated time periods, cell numbers were quantified. […] B ) SK expression - After SK inhibitor treatment, mRNAs for SK1 (open bars) and SK2 (filled bars) compared to the vehicle controls (DMSO-treated cells) were calculated. C ) Sphingolipid profiling – After SK inhibitor treatment, cells were harvested and sphingolipids were analyzed by mass spectrometric. The bars represent the ratio of the amount of the indicated lipids in drug treated cells compared with control cells. Abbreviations are: C26-ceramide (C26-Cer), C24-ceramide (C24-Cer), C20-ceramide (C20-Cer), C18-ceramide (C18-Cer), C16-ceramide (C16-Cer), sphingosine (Sph) and dihydrosphingosine (dhSph). D ) Cell cycle distribution – After SK inhibitor treatment, cells were harvested and analyzed by flow cytometry. The bars indicate the percentage of cells in each of the indicated cell cycle phases. E ) Cell migration and invasion – After SK inhibitor treatment, cells were harvested and migration, through unmodified filters (open bars) and invasion through Matrigel-coated filters (filled bars), were analyzed. The bars indicate the percentage of cells that had migrated compared to control cells. Data are the mean ± SEM of three independent experiments. *p<0.05, **p<0.01, ***p<0.001 versus control.

[2] = tested on: A498 kidney adenocarcinoma cells; assay: Sphingolipid profiling by HPLC-MS in A498 cells; assay type: cell-based; settings: inhibitor at its IC50, 48 hr
Method: as §1, §2

SK1 mRNA = SK1 mRNA expression by quantitative PCR in A498 cells; assay type: cell-based; settings: inhibitor at its IC50, 48 hr
Method: as §1, §2

[3] = tested on: A498 kidney adenocarcinoma cells; assay: Proliferation / cytotoxicity, sulforhodamine assay; assay type: cell-based; settings: Homo sapiens, A498, 48 h, read-out: IC50, concentration that reduces cell number by 50%
Method: (§3) To assess proliferation, cells were treated with the SK inhibitors for the indicated times, and cell numbers were quantified using the sulforhodamine assay [38]. […] For migration assays, 50,000 cells were placed in each cell culture insert (24-well format, 8 µm pore size, BD Biosciences) for 1 hr at room temperature. For invasion assays, matrigel pre-coated inserts were used as previously described [17]. In both cases, inserts were placed into 24-well plates with 0.3 ml of 10%-serum-containing medium having the same concentration of the inhibitor as the insert. Cells were cultured for 4 hr for migration or 24 hr for invasion assays, and the number of cells that migrated to the underside of the inserts was determined by crystal violet staining as previously described [17].
(§4) A ) Cytotoxicity - After treatment with varying concentrations of the SK inhibitors for the indicated time periods, cell numbers were quantified. […] E ) Cell migration and invasion – After SK inhibitor treatment, cells were harvested and migration, through unmodified filters (open bars) and invasion through Matrigel-coated filters (filled bars), were analyzed. […] Data are the mean ± SEM of three independent experiments. *p<0.05, **p<0.01, ***p<0.001 versus control.

recombinant human SK1 = target: T1, recombinant human SK1 (Homo sapiens, UniProt Q9NYA1); assay: SK activity assay, recombinant human SK1 (ADP-Quest; HPLC assay for SKI-II); assay type: biochemical; settings: for mode of inhibition of SK1: substrate competition, Lineweaver-Burk plots; for IC50: sphingosine 10 µM, read-out: IC50 for inhibition of SK1; for IC50 / Ki: ADP-Quest (SKI-II: HPLC assay); for Ki: recombinant human SK1, mean ± SEM of three independent experiments
T1 construct: purchased BPS Biosciences
T1 sequence (Q9NYA1 whole entry): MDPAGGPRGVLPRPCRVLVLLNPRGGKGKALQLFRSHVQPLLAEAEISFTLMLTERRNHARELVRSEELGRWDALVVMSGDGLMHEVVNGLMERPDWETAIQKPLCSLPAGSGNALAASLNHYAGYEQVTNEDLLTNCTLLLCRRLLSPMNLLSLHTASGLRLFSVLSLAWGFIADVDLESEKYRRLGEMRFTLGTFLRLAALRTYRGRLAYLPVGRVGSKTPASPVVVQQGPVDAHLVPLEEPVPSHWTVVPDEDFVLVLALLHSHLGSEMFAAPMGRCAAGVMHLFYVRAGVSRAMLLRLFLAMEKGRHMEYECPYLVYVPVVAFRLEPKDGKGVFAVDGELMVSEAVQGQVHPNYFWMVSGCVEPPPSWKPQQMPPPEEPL
Method: (§5) The enzymatic activities of recombinant human SK1 or SK2 (purity ≥74% by coomassie staining for each isozyme, BPS Biosciences) were measured using the ADP-Quest kinase assay kit (DiscoveRX Corporation, Fremont, CA) as previously described [34]. […] The reactions were maintained in initial velocity conditions (<5% of the substrate consumed), and data was fitted to the Michaelis–Menten equation by nonlinear regression (Prism 5 for Windows, GraphPad Software). […] For substrate competition analyses, a series of sphingosine concentrations were used and Lineweaver–Burk plots were constructed to define the mode of inhibition.

[4] = tested on: A498 kidney adenocarcinoma cells; assay: Cell cycle distribution by flow cytometry; assay type: cell-based; settings: inhibitor at its IC50, 48 hr
Method: as §2

recombinant human SK2 = target: T2, recombinant human SK2 (Homo sapiens, UniProt Q9NRA0); assay: SK activity assay, recombinant human SK2 (ADP-Quest; HPLC assay for SKI-II); assay type: biochemical; settings: for Ki: recombinant human SK2, mean ± SEM of three independent experiments; for Ki / IC50: ADP-Quest (SKI-II: HPLC assay); for IC50: sphingosine 5 µM, read-out: IC50 for inhibition of SK2; for mode of inhibition of SK2: substrate competition, Lineweaver-Burk plots
T2 construct: purchased BPS Biosciences
T2 sequence (Q9NRA0 1-654): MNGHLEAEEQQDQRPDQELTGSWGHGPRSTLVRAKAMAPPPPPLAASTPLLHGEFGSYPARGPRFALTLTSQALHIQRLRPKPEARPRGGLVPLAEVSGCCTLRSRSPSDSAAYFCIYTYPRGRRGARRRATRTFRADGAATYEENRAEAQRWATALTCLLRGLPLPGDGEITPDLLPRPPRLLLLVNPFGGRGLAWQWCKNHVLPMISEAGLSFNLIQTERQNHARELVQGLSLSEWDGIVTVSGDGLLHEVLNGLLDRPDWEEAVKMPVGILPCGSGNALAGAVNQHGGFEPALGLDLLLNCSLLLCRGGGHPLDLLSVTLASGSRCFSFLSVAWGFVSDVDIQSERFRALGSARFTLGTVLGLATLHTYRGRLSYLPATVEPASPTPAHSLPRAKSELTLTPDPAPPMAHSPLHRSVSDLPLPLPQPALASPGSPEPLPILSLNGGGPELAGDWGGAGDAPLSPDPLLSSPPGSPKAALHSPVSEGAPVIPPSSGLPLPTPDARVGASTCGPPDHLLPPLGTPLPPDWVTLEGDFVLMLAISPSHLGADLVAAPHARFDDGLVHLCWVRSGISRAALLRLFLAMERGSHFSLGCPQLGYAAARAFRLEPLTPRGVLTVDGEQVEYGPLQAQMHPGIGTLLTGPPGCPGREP
Method: as §5

[5] = tested on: A498 kidney adenocarcinoma cells; assay: Serum-induced migration and invasion (Matrigel) assays; assay type: cell-based; settings: inhibitor at its IC50, 48 hr pretreatment, compared with SK1-selective CB5468139
Method: as §3, §4

[6] = tested on: panel of 65 protein kinases; assay: Kinase profiling, KinaseSeeker assay; settings: 2 µM compound; 65 protein kinases tested
Method: The inhibitory effects of CB5468139 (2 µM) on the indicated protein kinases were tested using KinaseSeeker assay technology (Luceome Biotech. LLC).

[7] = 100 µM ATP, sphingosine 1.25 to 20 µM, initial velocity conditions

| Molecule | pFAK(Y397) / FAK [1] | protein levels of p53 and p21 [1] | SK2 mRNA level compared to vehicle control (SK2 mRNA) | SK1 mRNA level compared to vehicle control (SK1 mRNA) | IC50 [3] | mode of inhibition of SK1 (recombinant human SK1) | effect on cell cycle distribution [4] | Ki (recombinant human SK2) | IC50 (recombinant human SK2) | mode of inhibition of SK2 (recombinant human SK2) | decrease of intracellular S1P compared to control [2] | IC50 (recombinant human SK1) | other results |
| --- | --- | --- | --- | --- | --- | --- | --- | --- | --- | --- | --- | --- | --- |
| CCCCCCCCCCCCC/C=C/[C@@H](O)[C@H](CO)N(C)C [DMS, N,N-dimethyl-D-erythro-sphingosine, reference compound] | not altered | essentially no affect | only slightly increased | tripled | 5 µM | competitive inhibition with respect to sphingosine | did not impact the cell cycle | 14 µM | ~20 µM | competitive inhibition with respect to sphingosine | – | – | effect on levels of ceramides [2]: little impact on the levels of most ceramides; cells driven into apoptosis [4]: approximately 20% |
| Oc1ccc(Nc2nc(-c3ccc(Cl)cc3)cs2)cc1 [SKI-II, 2-(p-hydroxyanilino)-4-(p-chlorophenyl) thiazole, reference compound] | strongly down-regulated | decreased the protein levels of p53 and p21 | ~4 fold | ~4 fold | 20 µM | – | arrested cells in S phase with a concomitant decrease in the G2/M phase | 7.9 ± 0.6 µM | 20 µM | – | over 90% | – | ERK2 expression [1]: decreases of ERK2; increase of total ceramide levels [2]: 30–60%; levels of sphingosine [2]: dramatically decreased; serum-induced migration and invasion [5]: more strongly attenuated |
| O=C(NCc1ccncc1)C12CC3CC(C1)CC(c1ccc(Cl)cc1)(C3)C2 [ABC294640] | strongly down-regulated | decreased the protein levels of p53 and p21 | strongly increased | approximately 5 fold | 40 µM | – | distinct G1 arrest with significant decreases in both S and G2/M phases | 9.3 µM | ~40 µM | sphingosine-competitive inhibitor | over 90% | > 100 µM | ERK2 expression [1]: decreases of ERK2; STAT3 expression and activation (pSTAT3) [1]: largest decrease; expression of autophagy markers beclin1 and LC3 [1]: most pronounced increases; pAKT level [1]: decreased dramatically; levels of sphingosine [2]: dramatically decreased; total ceramides relative to control cells [2]: 2 times the level of control cells; serum-induced migration and invasion [5]: more strongly attenuated |
| diacylglycerol [DAG] | – | – | – | – | – | – | – | – | > 100 µM | – | – | > 100 µM | – |
| O=C(NCCc1ccc(O)c(O)c1)C12CC3CC(C1)CC(c1ccc(Cl)cc1)(C3)C2 [ABC294735] | – | – | Neither ABC294735 nor CB5468139 substantially altered the expression | Neither ABC294735 nor CB5468139 substantially altered the expression | 35 µM | sphingosine-competitive inhibitor | slightly increase the S phase percentage | 4.2 ± 0.6 µM | ~10 µM | sphingosine-competitive inhibitor | – | ~10 µM | Ki (recombinant human SK1): 3.1 ± 0.8 µM |
| CC(=O)N(C1=C(Cl)C(=O)c2ccccc2C1=O)C1CCCCC1 [CB5468139] | strongly down-regulated | reduced the expression of p53, but not p21 | Neither ABC294735 nor CB5468139 substantially altered the expression | Neither ABC294735 nor CB5468139 substantially altered the expression | 10 µM | ATP mimetic | slightly increase the S phase percentage | – | > 100 µM | – | less than 20% | ~2 µM | increase of total ceramide levels [2]: 30–60%; protein kinases with ≥50% inhibition [6]: 12 of 65; Ki (recombinant human SK1): 0.28 ± 0.15 µM |
| CCCCCCCCCCCCC/C=C/[C@@H](O)[C@@H](N)CO [sphingosine] | – | – | – | – | – | – | – | – | – | – | – | – | Km (recombinant human SK1; [7]): 10 ± 0.45 µM; Km (recombinant human SK2; [7]): 5 ± 0.36 µM |
